Measured values taken from doi:10.1101/2023.11.24.568596v1 (biorxiv, 2023).
Blank lines part the entries; values can stand above or below the compound they belong to.

How the values were obtained:
Conditions in all cases: binder
EphA5 = EphA5 (Homo sapiens, UniProt P54756)
PAK4 = PAK4 (Homo sapiens, UniProt O96013)
CLK1 = CLK1 (Homo sapiens, UniProt P49759)
NEK1 = molecular target: T1, NEK1 (Homo sapiens, UniProt Q96PY6)
T1 sequence (Q96PY6 1-1258): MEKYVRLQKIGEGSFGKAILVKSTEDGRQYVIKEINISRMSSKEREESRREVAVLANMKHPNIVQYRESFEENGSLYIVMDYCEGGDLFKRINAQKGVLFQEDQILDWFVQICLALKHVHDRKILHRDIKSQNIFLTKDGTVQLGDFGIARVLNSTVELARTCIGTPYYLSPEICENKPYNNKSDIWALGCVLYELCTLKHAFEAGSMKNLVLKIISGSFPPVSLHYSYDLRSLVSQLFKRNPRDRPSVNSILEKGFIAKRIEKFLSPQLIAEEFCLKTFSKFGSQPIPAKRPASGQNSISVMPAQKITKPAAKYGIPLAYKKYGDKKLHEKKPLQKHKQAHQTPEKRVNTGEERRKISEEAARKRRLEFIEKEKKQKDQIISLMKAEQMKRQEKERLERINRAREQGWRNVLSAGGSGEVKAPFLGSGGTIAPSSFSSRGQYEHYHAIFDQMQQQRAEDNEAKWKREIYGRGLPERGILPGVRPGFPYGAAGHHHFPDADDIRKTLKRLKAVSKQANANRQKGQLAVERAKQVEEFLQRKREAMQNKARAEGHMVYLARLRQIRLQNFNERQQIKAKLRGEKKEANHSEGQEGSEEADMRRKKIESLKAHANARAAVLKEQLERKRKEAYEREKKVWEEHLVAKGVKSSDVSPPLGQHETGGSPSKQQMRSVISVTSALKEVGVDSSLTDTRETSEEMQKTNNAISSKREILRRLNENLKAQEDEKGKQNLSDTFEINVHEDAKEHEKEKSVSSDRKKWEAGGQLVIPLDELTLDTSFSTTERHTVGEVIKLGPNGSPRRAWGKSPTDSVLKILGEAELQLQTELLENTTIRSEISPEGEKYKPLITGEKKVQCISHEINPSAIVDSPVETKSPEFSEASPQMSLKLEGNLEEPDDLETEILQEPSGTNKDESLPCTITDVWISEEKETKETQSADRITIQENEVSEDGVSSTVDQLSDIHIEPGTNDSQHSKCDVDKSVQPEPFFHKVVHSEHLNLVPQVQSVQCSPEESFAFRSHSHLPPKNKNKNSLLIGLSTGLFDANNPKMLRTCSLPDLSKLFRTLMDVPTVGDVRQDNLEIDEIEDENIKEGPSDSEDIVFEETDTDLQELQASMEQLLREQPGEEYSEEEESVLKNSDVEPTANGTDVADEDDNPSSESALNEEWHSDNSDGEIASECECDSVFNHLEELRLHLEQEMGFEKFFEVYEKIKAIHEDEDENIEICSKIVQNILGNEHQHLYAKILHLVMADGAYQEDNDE

MST2 = molecular target: T2, MST2 (Homo sapiens, UniProt Q13188)
T2 sequence (Q13188 1-491): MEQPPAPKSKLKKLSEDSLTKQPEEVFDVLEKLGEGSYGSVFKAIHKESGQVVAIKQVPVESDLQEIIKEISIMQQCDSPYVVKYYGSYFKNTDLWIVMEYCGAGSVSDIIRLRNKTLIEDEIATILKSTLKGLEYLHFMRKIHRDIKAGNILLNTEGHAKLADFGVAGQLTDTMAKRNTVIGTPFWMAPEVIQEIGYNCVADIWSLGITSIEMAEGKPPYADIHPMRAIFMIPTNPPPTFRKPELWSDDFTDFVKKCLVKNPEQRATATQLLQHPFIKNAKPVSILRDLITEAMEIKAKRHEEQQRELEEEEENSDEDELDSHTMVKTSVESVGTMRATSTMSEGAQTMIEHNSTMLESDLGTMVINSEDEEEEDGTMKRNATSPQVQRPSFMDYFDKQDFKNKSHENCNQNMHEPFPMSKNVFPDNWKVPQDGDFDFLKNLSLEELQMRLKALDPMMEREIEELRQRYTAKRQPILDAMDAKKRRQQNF

CaMK1d = CaMK1d (Homo sapiens, UniProt Q8IU85)
Chain of CaMK1d (Q8IU85 whole entry): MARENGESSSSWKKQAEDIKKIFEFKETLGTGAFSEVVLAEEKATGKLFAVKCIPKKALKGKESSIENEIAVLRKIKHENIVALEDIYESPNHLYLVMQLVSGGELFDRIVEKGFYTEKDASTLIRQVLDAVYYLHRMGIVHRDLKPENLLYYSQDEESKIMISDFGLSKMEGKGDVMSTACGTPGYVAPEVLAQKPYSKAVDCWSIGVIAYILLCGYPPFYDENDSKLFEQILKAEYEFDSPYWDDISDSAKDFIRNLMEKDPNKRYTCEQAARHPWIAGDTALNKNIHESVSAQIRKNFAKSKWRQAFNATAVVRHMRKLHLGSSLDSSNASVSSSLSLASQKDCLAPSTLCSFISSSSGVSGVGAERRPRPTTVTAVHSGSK

CDKL1 = CDKL1 (Homo sapiens, UniProt Q00532)
Chain of CDKL1 (Q00532 whole entry): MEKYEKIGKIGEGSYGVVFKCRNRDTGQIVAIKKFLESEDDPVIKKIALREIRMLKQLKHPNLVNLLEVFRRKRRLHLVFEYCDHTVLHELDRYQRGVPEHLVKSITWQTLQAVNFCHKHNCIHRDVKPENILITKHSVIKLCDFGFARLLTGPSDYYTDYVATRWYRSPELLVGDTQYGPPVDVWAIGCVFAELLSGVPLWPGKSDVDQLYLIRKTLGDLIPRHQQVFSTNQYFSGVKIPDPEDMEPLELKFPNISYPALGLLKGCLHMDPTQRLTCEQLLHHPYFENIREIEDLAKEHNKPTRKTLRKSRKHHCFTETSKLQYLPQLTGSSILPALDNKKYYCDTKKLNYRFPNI

EphA2 = EphA2 (Homo sapiens, UniProt P29317)
AurA = molecular target: T3, AurA (Homo sapiens, UniProt O14965)
T3 sequence (O14965 1-403): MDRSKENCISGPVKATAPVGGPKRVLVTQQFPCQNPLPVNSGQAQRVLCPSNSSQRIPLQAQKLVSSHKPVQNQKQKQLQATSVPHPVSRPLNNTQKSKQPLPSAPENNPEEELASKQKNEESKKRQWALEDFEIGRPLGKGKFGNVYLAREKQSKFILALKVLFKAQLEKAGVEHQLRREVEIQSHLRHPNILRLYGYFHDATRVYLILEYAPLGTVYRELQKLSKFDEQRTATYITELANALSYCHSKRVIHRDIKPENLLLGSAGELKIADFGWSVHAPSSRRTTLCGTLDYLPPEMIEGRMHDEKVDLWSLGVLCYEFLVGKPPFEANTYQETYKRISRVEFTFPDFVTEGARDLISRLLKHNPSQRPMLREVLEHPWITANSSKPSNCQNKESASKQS

CK1d = CK1d (Homo sapiens, UniProt P48730)
Chain of CK1d (P48730 whole entry): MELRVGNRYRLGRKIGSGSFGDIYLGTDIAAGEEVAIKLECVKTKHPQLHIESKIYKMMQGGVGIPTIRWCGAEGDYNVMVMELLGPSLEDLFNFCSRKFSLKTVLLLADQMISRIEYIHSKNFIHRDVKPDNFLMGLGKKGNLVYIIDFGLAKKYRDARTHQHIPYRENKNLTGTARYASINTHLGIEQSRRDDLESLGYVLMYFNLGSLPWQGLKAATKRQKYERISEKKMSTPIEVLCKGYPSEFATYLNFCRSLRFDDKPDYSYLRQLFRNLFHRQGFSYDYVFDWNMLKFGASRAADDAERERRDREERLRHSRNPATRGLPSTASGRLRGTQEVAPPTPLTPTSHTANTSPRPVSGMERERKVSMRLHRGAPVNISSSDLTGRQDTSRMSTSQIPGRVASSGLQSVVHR

FGFR2 = FGFR2 (Homo sapiens, UniProt P21802)
Chain of FGFR2 (P21802 whole entry): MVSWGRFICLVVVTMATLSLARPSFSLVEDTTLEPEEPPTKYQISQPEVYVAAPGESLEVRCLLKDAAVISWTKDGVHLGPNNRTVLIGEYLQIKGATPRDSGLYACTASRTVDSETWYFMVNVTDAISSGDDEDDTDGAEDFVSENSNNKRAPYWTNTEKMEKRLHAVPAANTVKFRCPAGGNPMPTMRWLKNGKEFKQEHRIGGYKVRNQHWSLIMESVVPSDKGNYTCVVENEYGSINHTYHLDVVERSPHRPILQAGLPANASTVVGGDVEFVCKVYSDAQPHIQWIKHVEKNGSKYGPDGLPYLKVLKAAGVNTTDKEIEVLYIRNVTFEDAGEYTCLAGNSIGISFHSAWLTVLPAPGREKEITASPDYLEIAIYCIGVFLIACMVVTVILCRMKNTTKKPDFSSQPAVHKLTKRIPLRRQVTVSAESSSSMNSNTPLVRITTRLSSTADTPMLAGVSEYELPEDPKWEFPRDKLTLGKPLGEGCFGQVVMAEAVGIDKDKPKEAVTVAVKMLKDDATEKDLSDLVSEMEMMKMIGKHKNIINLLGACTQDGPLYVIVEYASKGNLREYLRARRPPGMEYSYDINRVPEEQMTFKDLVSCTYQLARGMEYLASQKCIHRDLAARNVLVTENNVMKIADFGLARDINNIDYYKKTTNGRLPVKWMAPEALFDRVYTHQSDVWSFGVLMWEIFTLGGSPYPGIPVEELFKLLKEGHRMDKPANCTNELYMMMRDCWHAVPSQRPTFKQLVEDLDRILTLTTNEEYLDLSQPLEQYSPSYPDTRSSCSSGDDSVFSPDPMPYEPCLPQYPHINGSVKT

Chain of CLK1 (P49759 whole entry): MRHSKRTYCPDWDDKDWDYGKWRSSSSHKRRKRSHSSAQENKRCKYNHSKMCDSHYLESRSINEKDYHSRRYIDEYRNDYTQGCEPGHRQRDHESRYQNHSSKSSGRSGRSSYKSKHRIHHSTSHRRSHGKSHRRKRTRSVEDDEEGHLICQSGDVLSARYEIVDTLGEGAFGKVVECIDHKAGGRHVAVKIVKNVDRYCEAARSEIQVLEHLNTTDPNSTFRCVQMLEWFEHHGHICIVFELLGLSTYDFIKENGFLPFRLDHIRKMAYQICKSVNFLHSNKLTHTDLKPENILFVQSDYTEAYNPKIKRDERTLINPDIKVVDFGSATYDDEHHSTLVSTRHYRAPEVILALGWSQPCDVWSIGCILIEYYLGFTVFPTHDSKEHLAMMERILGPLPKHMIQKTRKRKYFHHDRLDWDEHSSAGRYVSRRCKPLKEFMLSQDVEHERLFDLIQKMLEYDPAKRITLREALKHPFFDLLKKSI
Chain of PAK4 (O96013 whole entry): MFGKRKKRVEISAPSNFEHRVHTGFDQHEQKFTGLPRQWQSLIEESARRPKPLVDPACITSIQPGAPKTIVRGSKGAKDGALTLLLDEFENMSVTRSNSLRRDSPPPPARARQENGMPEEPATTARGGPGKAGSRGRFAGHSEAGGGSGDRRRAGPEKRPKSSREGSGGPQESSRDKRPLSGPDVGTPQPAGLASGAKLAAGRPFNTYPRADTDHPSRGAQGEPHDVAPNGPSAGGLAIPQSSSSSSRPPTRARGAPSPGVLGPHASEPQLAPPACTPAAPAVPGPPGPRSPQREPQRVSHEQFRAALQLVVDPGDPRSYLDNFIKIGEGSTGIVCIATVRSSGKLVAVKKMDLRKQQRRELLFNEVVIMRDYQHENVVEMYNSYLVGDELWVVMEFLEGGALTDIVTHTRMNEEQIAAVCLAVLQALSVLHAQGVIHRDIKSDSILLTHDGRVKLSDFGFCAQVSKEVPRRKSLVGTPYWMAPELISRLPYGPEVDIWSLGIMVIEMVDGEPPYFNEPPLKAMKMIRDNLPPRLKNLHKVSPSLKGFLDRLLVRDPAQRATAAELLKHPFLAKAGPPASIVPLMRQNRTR
Chain of EphA5 (P54756 whole entry): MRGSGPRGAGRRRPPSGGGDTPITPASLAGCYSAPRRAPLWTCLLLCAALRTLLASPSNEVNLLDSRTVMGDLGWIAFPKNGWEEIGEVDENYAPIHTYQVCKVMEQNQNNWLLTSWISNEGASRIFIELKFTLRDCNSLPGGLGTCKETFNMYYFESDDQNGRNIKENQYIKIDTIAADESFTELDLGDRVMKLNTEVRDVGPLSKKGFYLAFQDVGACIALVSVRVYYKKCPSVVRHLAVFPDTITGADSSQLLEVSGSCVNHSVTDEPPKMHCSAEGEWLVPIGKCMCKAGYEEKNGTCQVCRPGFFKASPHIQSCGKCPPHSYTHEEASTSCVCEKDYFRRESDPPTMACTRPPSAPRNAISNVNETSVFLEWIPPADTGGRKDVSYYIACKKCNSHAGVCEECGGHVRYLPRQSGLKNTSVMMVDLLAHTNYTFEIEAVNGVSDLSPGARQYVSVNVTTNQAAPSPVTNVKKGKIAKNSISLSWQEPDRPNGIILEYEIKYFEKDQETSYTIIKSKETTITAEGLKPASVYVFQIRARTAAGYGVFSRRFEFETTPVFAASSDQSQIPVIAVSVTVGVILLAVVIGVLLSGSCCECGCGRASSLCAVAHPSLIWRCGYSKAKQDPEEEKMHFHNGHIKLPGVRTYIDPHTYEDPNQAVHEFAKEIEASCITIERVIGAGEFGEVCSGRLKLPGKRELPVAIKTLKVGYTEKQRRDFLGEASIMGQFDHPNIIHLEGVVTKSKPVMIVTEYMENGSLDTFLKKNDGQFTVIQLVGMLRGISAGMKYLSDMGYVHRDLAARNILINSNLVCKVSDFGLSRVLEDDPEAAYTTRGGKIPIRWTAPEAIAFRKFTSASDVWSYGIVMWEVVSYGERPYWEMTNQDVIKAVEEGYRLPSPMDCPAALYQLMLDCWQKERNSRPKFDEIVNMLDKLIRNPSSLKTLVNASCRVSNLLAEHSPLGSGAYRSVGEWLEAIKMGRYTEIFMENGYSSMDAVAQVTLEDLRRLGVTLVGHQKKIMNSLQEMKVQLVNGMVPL

- ΔTm MRLW5 (20) (EphA5): 3.3 °C
- ΔTm MRLW5 (20) (PAK4): 4.8 °C
- ΔTm MRLW5 (20) (CLK1): 0.3 °C
- ΔTm MRLW5 (20) (NEK1): -1.9 °C
- ΔTm MRLW5 (20) (MST2): 7.9 °C
- ΔTm MRLW5 (20) (CaMK1d): 7.2 °C
- ΔTm MRLW5 (20) (CDKL1): -0.1 °C
- ΔTm MRLW5 (20) (EphA2): 3.5 °C
- ΔTm MRLW5 (20) (AurA): 11.8 °C
- ΔTm MRLW5 (20) (CK1d): 0.8 °C
- ΔTm MRLW5 (20) (FGFR2): 1.9 °C
Compound: CNc1ncc2cc(-c3ccc(-c4cccc(C)n4)cc3Cl)c(=O)n(CCCCN)c2n1 [compound 20, MRLW5]

- ΔTm MR24 (24) (EphA5): -0.4 °C
- ΔTm MR24 (24) (PAK4): 2.2 °C
- ΔTm MR24 (24) (CLK1): -0.4 °C
- ΔTm MR24 (24) (NEK1): 0.0 °C
- ΔTm MR24 (24) (MST2): 4.9 °C
- ΔTm MR24 (24) (CaMK1d): 0.5 °C
- ΔTm MR24 (24) (CDKL1): 0.9 °C
- ΔTm MR24 (24) (EphA2): 0.6 °C
- ΔTm MR24 (24) (AurA): -1.7 °C
- ΔTm MR24 (24) (CK1d): 1.2 °C
- ΔTm MR24 (24) (FGFR2): 0.8 °C
Compound: Cc1cccc(-c2ccc(-c3cc4cnc(NC(CO)CO)nc4n(CCCCN)c3=O)c(Cl)c2)n1 [compound 24, 8-(4-Aminobutyl)-6-(2-chloro-4-(6-methylpyridin-2-yl)phenyl)-2-((1,3-dihydroxypropan-2-yl)amino)pyrido[2,3-d]pyrimidin-7(8H)-one]

- ΔTm 23 (EphA5): 4.0 °C
- ΔTm 23 (PAK4): 4.5 °C
- ΔTm 23 (CLK1): 0.8 °C
- ΔTm 23 (NEK1): -2.7 °C
- ΔTm 23 (MST2): 10.8 °C
- ΔTm 23 (CaMK1d): 9.5 °C
- ΔTm 23 (CDKL1): 0.1 °C
- ΔTm 23 (EphA2): 3.2 °C
- ΔTm 23 (AurA): 13.1 °C
- ΔTm 23 (CK1d): 2.3 °C
- ΔTm 23 (FGFR2): 2.9 °C
Compound: CNc1ncc2cc(-c3ccc(-c4cccc(C)n4)cc3Cl)c(=O)n(C[C@H]3CC[C@H](N)CC3)c2n1 [compound 23, 23]

- ΔTm 25 (EphA5): 3.2 °C
- ΔTm 25 (PAK4): 5.5 °C
- ΔTm 25 (CLK1): 1.4 °C
- ΔTm 25 (NEK1): -1.2 °C
- ΔTm 25 (MST2): 9.4 °C
- ΔTm 25 (CaMK1d): 5.3 °C
- ΔTm 25 (CDKL1): 2.1 °C
- ΔTm 25 (EphA2): 3.3 °C
- ΔTm 25 (AurA): 1.8 °C
- ΔTm 25 (CK1d): 3.1 °C
- ΔTm 25 (FGFR2): 1.7 °C
Compound: Cc1cccc(-c2ccc(-c3cc4cnc(NCCCc5ccc(N)cc5)nc4n(CCCCN)c3=O)c(Cl)c2)n1 [compound 25, 8-(4-Aminobutyl)-2-((3-(4-aminophenyl)propyl)amino)-6-(2-chloro-4-(6-methylpyridin-2-yl)phenyl)pyrido[2,3-d]pyrimidin-7(8H)-one]

- ΔTm MR26 (26) (EphA5): 3.5 °C
- ΔTm MR26 (26) (PAK4): 2.4 °C
- ΔTm MR26 (26) (CLK1): -0.1 °C
- ΔTm MR26 (26) (NEK1): 0.1 °C
- ΔTm MR26 (26) (MST2): 7.7 °C
- ΔTm MR26 (26) (CaMK1d): 4.1 °C
- ΔTm MR26 (26) (CDKL1): 0.5 °C
- ΔTm MR26 (26) (EphA2): 4.2 °C
- ΔTm MR26 (26) (AurA): -0.9 °C
- ΔTm MR26 (26) (CK1d): 1.9 °C
- ΔTm MR26 (26) (FGFR2): 1.4 °C
Compound: Cc1cccc(-c2ccc(-c3cc4cnc(NCCCN5CCOCC5)nc4n(CCCCN)c3=O)c(Cl)c2)n1 [compound 26, MR26]

- ΔTm 22 (EphA5): 4.1 °C
- ΔTm 22 (PAK4): 4.7 °C
- ΔTm 22 (CLK1): -1.6 °C
- ΔTm 22 (NEK1): -2.0 °C
- ΔTm 22 (MST2): 8.0 °C
- ΔTm 22 (CaMK1d): 8.5 °C
- ΔTm 22 (CDKL1): 0.4 °C
- ΔTm 22 (EphA2): 2.3 °C
- ΔTm 22 (AurA): 11.4 °C
- ΔTm 22 (CK1d): 2.1 °C
- ΔTm 22 (FGFR2): 3.9 °C
Compound: CNc1ncc2cc(-c3ccc(-c4cccc(C)n4)cc3Cl)c(=O)n(CCC3CCNCC3)c2n1 [compound 22, 6-(2-Chloro-4-(6-methylpyridin-2-yl)phenyl)-2-(methylamino)-8-(2-(piperidin-4-yl)ethyl)pyrido[2,3-d]pyrimidin-7(8H)-one]
